Reference: US20250002467A1, “DESIGN, SYNTHESIS AND MECHANISMS OF ANTICANCER ACTIVITY OF NEW ACETYLATED 5-AMINOSALICYLATE-THIAZOLINONE HYBRID DERIVATIVES” (University of Sharjah, priority 2023, published 2025)

How the values were obtained:
[1] = system: MCF7, HCT-116, HeLa and A549 cells; test: Annexin V/PI apoptosis analysis; assay type: cell-based; conditions: for early apoptotic cell population (Annexin V+/PI-): 24 and 48 hours
Method: The cells were collected at 12, 24 and 48 hours after treatment with […] of HH32 and HH33 compounds. The detection of early and late apoptotic cell death was done using FITC Annexin V Apoptosis Detection Kit (Becton Dickenson, California, USA) according to the manufacturer's protocol. The data were analyzed by BD Accuri C6 flow cytometer (Becton Dickenson, New Jersey, USA).

[2] = system: MCF7, HCT-116 and A549 cells; test: Neutral comet assay; assay type: cell-based; conditions: for level of DNA damage (tail moment): 0.5 and 1 μM, 24 hours, three cell lines
Method: MCF7, HCT-116 and A549 cells were treated with […] of HH32 or HH33 compounds for 24 hours and control cells were treated with vehicle (DMSO). A group of cells was treated with doxorubicin as a reference drug using the same treatment conditions. Comet assay was performed in neutral condition to detect DNA double-strand breaks using comet assay kit (Trevigen Inc., Maryland, USA) according to the manufacturer's instructions. The tail moment, which reflect the amount of DNA damage in each nucleus, was calculated in at least 50 cells using OpenComet software.

A549 = test: SRB cytotoxicity assay, A549; assay type: cell-based; conditions: for IC50: A549, SRB, mean ± SEM
Description: (§1) Eight different cancer cell lines were acquired from the Radiobiology and Experimental Radio Oncology lab, University Medical Center, Hamburg University, Hamburg, Germany. MCF7, MDA-MB-231 (breast cancer), and A549 (lung cancer) cells were maintained in RPMI medium while HCT116 (colon cancer), HepG2 (liver cancer), U87, U373 (glioblastoma), and HeLa (cervical cancer) were maintained in DMEM supplemented with 10% FBS and 1% penicillin/streptomycin (Sigma Aldrich, Missouri, USA). Normal human fibroblast (F180) cells were maintained in DMEM supplemented with 15% FBS. Normal human mammary epithelial cell line (HME1) were maintained in DMEM/F-12 medium supplemented with 10% FBS. All incubations were done at 37° C. in a humidified atmosphere of 5% CO2. All cell lines were authenticated by short tandem repeat (STR) profiling. The CDK4 knockout cells (provided by Dr. Samrein Ahmed, University of Sharjah, United Arab Emirates) were generated by CRISPR-CAS9 technology and were maintained in DMEM supplemented with 10% FBS.
(§2) The cytotoxic effects of HH32 and HH33 compounds were evaluated at various concentrations ranging from 0.0001 to 100 μM by sulphrhodamine-B (SRB) assay as described previously. The anti-proliferative activity was expressed as growth inhibitory concentration (IC50) values, which were calculated by the sigmoidal dose-response curve fitting method using Graph pad prism 6 software (GraphPad Software, San Diego, CA, USA).

[3] = system: eight tested cancer cell lines; test: SRB cytotoxicity assay, eight cancer cell lines; assay type: cell-based; conditions: for viability of the eight tested cancer cell lines: SRB, 0.0001 to 100 μM; for selectivity index compared with doxorubicin: cancer cell lines versus normal cells
Description: as §1, §2

HCT-116 = test: SRB cytotoxicity assay, HCT-116; assay type: cell-based
Description: as §1, §2

U373 = test: SRB cytotoxicity assay, U373; assay type: cell-based
Description: as §1, §2

F-180 = test: SRB cytotoxicity assay, normal fibroblast F-180; assay type: cell-based, human; conditions: F-180 normal fibroblast, mean ± SEM
Description: as §1, §2

A549 cells = test: Transcriptomic analysis of HH33-treated A549 cells; assay type: cell-based
Method: RNA extraction was carried out followed by cDNA synthesis using SuperScript VILO cDNA Synthesis kit (Invitrogen, Waltham, MA, USA) and amplification using Ion AmpliSeq gene expression core panel primers. The prepared library was purified using Agencourt AMPure XP beads (Beckman Coulter, California, USA) and quantified using Ion Library TaqMan™ Quantitation Kit (Applied Biosystems, Waltham, MA, USA). The libraries were further diluted to […] and pooled equally with four individual samples per pool. The pooled libraries were amplified using emulsion PCR on Ion OneTouch™ 2 instrument (OT2) and the enrichment was performed on Ion OneTouch™ ES following the manufacturer's instruction. Thus, prepared template libraries were then sequenced with Ion S5 XL Semiconductor sequencer using the Ion 540™ Chip. RNA-seq data were analyzed using Ion Torrent Software Suite version 5.4 and the alignment was carried out using modifications of the Torrent Mapping Alignment Program (TMAP) optimizing it for aligning the raw sequencing reads against reference sequence derived from hgl9 (GRCh37) assembly. The specificity and sensitivity was maintained by implementing a two-stage mapping approach by employing BWA-short, BWA-long, SSAHA [31], Super-maximal Exact Matching and Smith Waterman algorithm for optimal mapping. Raw read counts of the targeted genes were performed using Samtools (Samtools view —c -F 4-L bed_file bam_file) and the number of expressed transcripts was confirmed after Fragments Per Kilobase Million (FPKM) normalisation. Differentially expressed gene (DEG) analysis was performed using a script written in R programming language (version 3.6.3) with function calls to DESeq2 package from Bioconductor library sets. Raw read counts from RNASeq were normalized using quantile normalization. All counts ranked “0” were excluded. Differentially expressed genes between the two set of cell lines [HH33-treated (n=3), and untreated (n=3)] were assessed using 2 tailed t-test. Differentially expressed genes with p-value of <0.05, adjusted p-value<0.8 and 5-fold difference were included for pathway analysis using Metascape.

[4] = A549, H33-treated vs DMSO-treated, DNA repair pathways
[5] = H33-treated A549 cells/DMSO-treated A549 cells, Apoptosis
[6] = H33-treated A549 cells/DMSO-treated A549 cells, Cell Cycle
[7] = H33-treated A549 cells/DMSO-treated A549 cells, Transcriptional Regulation by TP53

## COC(=O)c1cc(NC2=NC(=O)C(=Cc3ccc(C)cc3)S2)ccc1OC(C)=O [HH32, Methyl 2-acetoxy-5-[(5-(4-methylbenzylidene)-4 (H)-oxo-1,3-thiazol-2-yl)-amino]benzoate]
[1]; HCT-116 cells
  late apoptotic/dead cells (Annexin V+/PI+): elevated
[1]; four cell lines
  early apoptotic cell population (Annexin V+/PI-): no sign of early apoptosis induction
[2]
  level of DNA damage (tail moment): increased
A549
  IC50: 6.17 ± 0.38 µM
A549; F180 versus A549
  Selectivity index: 2.16
A549; HME1 versus A549
  Selectivity index: 4.3
[3]
  viability of the eight tested cancer cell lines: remarkable concentration-dependent decrease
  selectivity index compared with doxorubicin: superior in most of cancer cell lines than doxorubicin
HCT-116; F180 versus HCT116
  Selectivity index: 11.4
HCT-116; HCT-116, SRB, mean ± SEM
  IC50: 1.17 ± 0.46 µM
HCT-116; HME1 versus HCT116
  Selectivity index: 22.9
U373; F180 versus U373
  Selectivity index: 0.45
U373; HME1 versus U373
  Selectivity index: 0.9
U373; U373, SRB, mean ± SEM
  IC50: 29.38 ± 0.08 µM
F-180
  IC50: 13.3 ± 0.38 µM

## COC(=O)c1cc(NC2=NC(=O)C(=Cc3ccc(N(C)C)cc3)S2)ccc1OC(C)=O [HH33, Methyl 2-acetoxy-5-[(5-(4-dimethylaminobenzylidene)-4 (H)-oxo-1,3-thiazol-2-yl)-amino]benzoate]
[1]; HCT-116 cells
  late apoptotic/dead cells (Annexin V+/PI+): elevated
[1]; four cell lines
  early apoptotic cell population (Annexin V+/PI-): increased
[1]; four cell lines, with increasing concentration
  late apoptotic/dead cells (Annexin V+/PI+): increased
[2]; 1 μM, same concentration, three tested cell lines
  level of DNA double strand breaks compared with doxorubicin: higher than doxorubicin
[2]
  level of DNA damage (tail moment): increased
[2]; MCF7 and HCT-116 cells
  comet length compared with HH32-treated cells: markedly higher
A549
  IC50: 2.93 ± 0.83 µM
A549; F180 versus A549
  Selectivity index: 1.3
A549; HME1 versus A549
  Selectivity index: 3.2
A549 cells; A549, H33-treated vs DMSO-treated, DNA repair / cell cycle
  Fold change (H_Mean/D_Mean) CLSPN: 0.01798
A549 cells; A549, H33-treated vs DMSO-treated, DNA repair / cell cycle / TP53 regulation
  Fold change (H_Mean/D_Mean) BARD1: 0.0451
A549 cells; [4]
  Fold change (H_Mean/D_Mean) ACTR8: 0.01139
  Fold change (H_Mean/D_Mean) CHEK2: 0.05943
  Fold change (H_Mean/D_Mean) EYA3: 0.02596
A549 cells; A549, confirmed by quantitative RT-PCR
  six shared genes (ATAD2, CDCA3, FAMIIIB, CDKN3, HISTIH2AH, MIS18BP1): maximally downregulated
A549 cells; A549, hypergeometric test
  apoptotic signaling pathway: upregulation
  cell cycle progression pathway: down-regulation
A549 cells; [5]
  Fold change BECN1: 186.7500
  Fold change CRIP1: 199.5714
  Fold change TGFB1: 100.8000
  Fold change TNFRSF10C: 802.5000
  Fold change YWHAH: 168.8804
A549 cells; [6]
  Fold change CDC14A: 0.01425
  Fold change CEP78: 0.01614
  Fold change ODF2: 0.005902
A549 cells; [7]
  Fold change CCNE1: 0.02093
  Fold change CDK9: 0.02262
  Fold change COX16: 0.04666
  Fold change CSNK2A2: 0.05877
[3]
  viability of the eight tested cancer cell lines: remarkable concentration-dependent decrease
  selectivity index compared with doxorubicin: superior in most of cancer cell lines than doxorubicin
HCT-116; F180 versus HCT116
  Selectivity index: 13.48
HCT-116; HCT-116 cells
  potency compared with doxorubicin: nearby equipotent
HCT-116; HME1 versus HCT116
  Selectivity index: 31.9
U373; F180 versus U373
  Selectivity index: 0.17
U373; HME1 versus U373
  Selectivity index: 0.4
F-180
  IC50: 3.91 ± 0.43 µM
